Earlier results in patent US9717795B2, “HPPH lyophilized powder injection for injection and preparation method thereof” (ZHEJIANG HISUN PHARMACEUTICAL CO., LTD, priority 2013, dated 2017).

Q: With HPPH as the substance, how does the solubility in water read?
A: poor solubility in water
